Tests used:
K-562 = assay: NCI-60 anticancer screen (SRB; single dose and five doses); conditions: Homo sapiens
RPMI-8226 = assay: as above; conditions: Homo sapiens
SR = assay: as above; conditions: Homo sapiens
A549/ATCC = assay: as above; conditions: Homo sapiens
EKVX = assay: as above; conditions: Homo sapiens
HOP-62 = assay: as above; conditions: Homo sapiens
HOP-92 = assay: as above; conditions: Homo sapiens
NCI-H23 = assay: as above; conditions: Homo sapiens
NCI-H460 = assay: as above; conditions: Homo sapiens
COLO 205 = assay: as above; conditions: Homo sapiens
HCC-2998 = assay: as above
HCT-15 = assay: as above; conditions: Homo sapiens
HT29 = assay: as above; conditions: Homo sapiens
KM12 = assay: as above; conditions: Homo sapiens
SNB-75 = assay: as above; conditions: Homo sapiens, SNB-75, 48 h, read-out: Growth Percentage
LOX IMVI = assay: as above; conditions: Homo sapiens
SK-MEL-28 = assay: as above; conditions: Homo sapiens
OVCAR-4 = assay: as above; conditions: Homo sapiens
NCI/ADR-RES = assay: as above; conditions: Homo sapiens
786-0 = assay: as above; conditions: Homo sapiens
A498 = assay: as above; conditions: Homo sapiens
ACHN = assay: as above; conditions: Homo sapiens
SN12C = assay: as above; conditions: Homo sapiens
TK-10 = assay: as above; conditions: Homo sapiens
PC-3 = assay: as above; conditions: Homo sapiens
DU-145 = assay: as above; conditions: Homo sapiens
BT-549 = assay: as above; conditions: Homo sapiens
T-47D = assay: as above; conditions: Homo sapiens, T47D
CCRF-CEM = assay: NCI-60 anticancer screen (SRB; single dose 10 μM and five doses); conditions: Homo sapiens
[1] = 48 h, read-out: Growth Percentage

Cc1[nH]c(=S)sc1C(=O)/C=C/c1ccc([N+](=O)[O-])cc1 [2i, (E)-1-(4-Methyl-2-Thioxo-2,3-Dihydrothiazol-5-yl)-3-(4-Nitrophenyl)Prop-2-En-1-One]
GI50 (K-562; K562): 3.5 µM
activity at 10 µM (K-562; K562, 48 h, read-out: Growth Percentage): 12.3%
CC50 (K-562; K562, read-out: LC50): > 100 µM
IC (TGI) (K-562; K562, read-out: TGI): > 100 µM
GI50 (RPMI-8226; RPMI-8226): 3.55 µM
activity at 10 µM (RPMI-8226; RPMI-8226, 48 h, read-out: Growth Percentage): -7.9%
CC50 (RPMI-8226; RPMI-8226, read-out: LC50): > 100 µM
IC (TGI) (RPMI-8226; RPMI-8226, read-out: TGI): > 100 µM
GI50 (SR): 2.86 µM
activity at 10 µM (SR; [1]): -4.81%
CC50 (SR; read-out: LC50): > 100 µM
IC (TGI) (SR; read-out: TGI): > 100 µM
GI50 (A549/ATCC; A549): 17 µM
activity at 10 µM (A549/ATCC; A549, 48 h, read-out: Growth Percentage): 75.7%
CC50 (A549/ATCC; A549, read-out: LC50): 69 µM
IC (TGI) (A549/ATCC; A549, read-out: TGI): 34.2 µM
GI50 (EKVX): 16.4 µM
activity at 10 µM (EKVX; [1]): 74.7%
CC50 (EKVX; read-out: LC50): 58.1 µM
IC (TGI) (EKVX; read-out: TGI): 30.9 µM
GI50 (HOP-62; HOP-62): 6.43 µM
activity at 10 µM (HOP-62; HOP-62, 48 h, read-out: Growth Percentage): 21.6%
CC50 (HOP-62; HOP-62, read-out: LC50): 67.7 µM
IC (TGI) (HOP-62; HOP-62, read-out: TGI): 23.2 µM
GI50 (HOP-92; HOP-92): 12.2 µM
activity at 10 µM (HOP-92; HOP-92, 48 h, read-out: Growth Percentage): 57.6%
CC50 (HOP-92; HOP-92, read-out: LC50): 64.4 µM
IC (TGI) (HOP-92; HOP-92, read-out: TGI): 28 µM
GI50 (NCI-H23; NCI-H23): 12.2 µM
activity at 10 µM (NCI-H23; NCI-H23, 48 h, read-out: Growth Percentage): 49.2%
CC50 (NCI-H23; NCI-H23, read-out: LC50): 52.6 µM
IC (TGI) (NCI-H23; NCI-H23, read-out: TGI): 25.3 µM
GI50 (NCI-H460; NCI-H460): 15.9 µM
activity at 10 µM (NCI-H460; NCI-H460, 48 h, read-out: Growth Percentage): 11.3%
CC50 (NCI-H460; NCI-H460, read-out: LC50): 72.5 µM
IC (TGI) (NCI-H460; NCI-H460, read-out: TGI): 34 µM
GI50 (COLO 205; COLO 205): 15.9 µM
activity at 10 µM (COLO 205; COLO 205, 48 h, read-out: Growth Percentage): 91.5%
CC50 (COLO 205; COLO 205, read-out: LC50): > 100 µM
IC (TGI) (COLO 205; COLO 205, read-out: TGI): 41.1 µM
GI50 (HCC-2998; Homo sapiens, HCC 2998): 9.37 µM
activity at 10 µM (HCC-2998; Homo sapiens, HCC 2998, 48 h, read-out: Growth Percentage): -11.9%
CC50 (HCC-2998; Homo sapiens, HCC 2998, read-out: LC50): 47 µM
TGI (HCC-2998; five-dose, Colon Cancer HCC-2998): 21.5 µM
GI50 (HCT-15; HCT-15): 2.46 µM
activity at 10 µM (HCT-15; HCT-15, 48 h, read-out: Growth Percentage): -62.1%
CC50 (HCT-15; HCT-15, read-out: LC50): 33.7 µM
IC (TGI) (HCT-15; HCT-15, read-out: TGI): 7.86 µM
GI50 (HT29; HT-29): 10.7 µM
activity at 10 µM (HT29; HT-29, 48 h, read-out: Growth Percentage): 62.8%
CC50 (HT29; HT-29, read-out: LC50): 68.7 µM
IC (TGI) (HT29; HT-29, read-out: TGI): 27.1 µM
GI50 (KM12; KM12): 3.8 µM
activity at 10 µM (KM12; KM12, 48 h, read-out: Growth Percentage): -72.5%
CC50 (KM12; KM12, read-out: LC50): 40 µM
IC (TGI) (KM12; KM12, read-out: TGI): 13.6 µM
activity at 10 µM (SNB-75): 36%
GI50 (LOX IMVI): 1.85 µM
activity at 10 µM (LOX IMVI; [1]): -86.2%
CC50 (LOX IMVI; read-out: LC50): 8.91 µM
IC (TGI) (LOX IMVI; read-out: TGI): 4.06 µM
GI50 (SK-MEL-28; SK-MEL-28): 13.7 µM
activity at 10 µM (SK-MEL-28; SK-MEL-28, 48 h, read-out: Growth Percentage): 23.9%
CC50 (SK-MEL-28; SK-MEL-28, read-out: LC50): 52.5 µM
IC (TGI) (SK-MEL-28; SK-MEL-28, read-out: TGI): 26.8 µM
GI50 (OVCAR-4; OVCAR-4): 14.9 µM
activity at 10 µM (OVCAR-4; OVCAR-4, 48 h, read-out: Growth Percentage): 49.2%
CC50 (OVCAR-4; OVCAR-4, read-out: LC50): 53.8 µM
IC (TGI) (OVCAR-4; OVCAR-4, read-out: TGI): 28.3 µM
GI50 (NCI/ADR-RES): 14.9 µM
activity at 10 µM (NCI/ADR-RES; [1]): -4.45%
CC50 (NCI/ADR-RES; read-out: LC50): 82.8 µM
IC (TGI) (NCI/ADR-RES; read-out: TGI): 35.2 µM
GI50 (786-0; 786-0): 3.99 µM
activity at 10 µM (786-0; 786-0, 48 h, read-out: Growth Percentage): 25.6%
CC50 (786-0; 786-0, read-out: LC50): 54 µM
IC (TGI) (786-0; 786-0, read-out: TGI): 17.6 µM
GI50 (A498; A498): 15.5 µM
activity at 10 µM (A498; A498, 48 h, read-out: Growth Percentage, A498, dose of 10 μM): 105%
CC50 (A498; A498, read-out: LC50): 55.3 µM
IC (TGI) (A498; A498, read-out: TGI): 29.3 µM
GI50 (ACHN): 11.3 µM
activity at 10 µM (ACHN; [1]): 3.88%
CC50 (ACHN; read-out: LC50): 48.4 µM
IC (TGI) (ACHN; read-out: TGI): 23.3 µM
GI50 (SN12C): 6.06 µM
activity at 10 µM (SN12C; [1]): 18.6%
CC50 (SN12C; read-out: LC50): 44.7 µM
IC (TGI) (SN12C; read-out: TGI): 19.3 µM
GI50 (TK-10; TK-10): 12.4 µM
activity at 10 µM (TK-10; TK-10, 48 h, read-out: Growth Percentage): 12.9%
CC50 (TK-10; TK-10, read-out: LC50): 51.3 µM
IC (TGI) (TK-10; TK-10, read-out: TGI): 25.3 µM
GI50 (PC-3; PC-3): 10.3 µM
activity at 10 µM (PC-3; PC-3, 48 h, read-out: Growth Percentage): 51.3%
CC50 (PC-3; PC-3, read-out: LC50): > 100 µM
IC (TGI) (PC-3; PC-3, read-out: TGI): 37.3 µM
GI50 (DU-145; DU-145): 3.41 µM
activity at 10 µM (DU-145; DU-145, 48 h, read-out: Growth Percentage): 21.4%
CC50 (DU-145; DU-145, read-out: LC50): 34.5 µM
IC (TGI) (DU-145; DU-145, read-out: TGI): 11 µM
GI50 (BT-549; BT-549): 5.04 µM
activity at 10 µM (BT-549; BT-549, 48 h, read-out: Growth Percentage): 20.1%
IC (TGI) (BT-549; BT-549, read-out: TGI): 19.3 µM
GI50 (T-47D): 4.96 µM
activity at 10 µM (T-47D; [1]): 44.3%
CC50 (T-47D; read-out: LC50): > 100 µM
IC (TGI) (T-47D; read-out: TGI): 25.7 µM
GI50 (CCRF-CEM): 4.56 µM
activity at 10 µM (CCRF-CEM; [1]): -7.25%
IC (TGI) (CCRF-CEM; read-out: TGI): > 100 µM

Reference: article PMC11435058, “Synthesis of New Thiazole-Privileged Chalcones as Tubulin Polymerization Inhibitors with Potential Anticancer Activities” (Pharmaceuticals, 2024)
